US20040191327A1, “Method of treating and/or preventing asthma using natural compound luteolin” (Council of Scientific and Industrial Research, priority 2003, published 2004)
Values joined by “and” are separate entries in the source; they are usually repeats but may differ in a detail not shown here. Identical values can stand only once. Marks after values point to notes of the source that are not given here.

How the values were obtained:
OVA-sensitized mice [1] = assay: OVA-induced airway constriction (fall of specific airway conductance, SGaw) in mouse model of asthma; format: in vivo
Experimental: Protocol A: The mice were given three i.p. Injections of 10 μg ovalbumin adsorbed on 2 mg alum on 0, 7 and 14 days and then subjected to OVA aerosol inhalation for five consecutive days from 19th to 23rd day of the experiment. On 24th day SGaw measurements were performed after OVA challenge in the plethysmograph and airway reactivity to methacholine was measured after 24 hours. In case of curative study (Protocol B), sensitized mice were fed with 1 mg/kg body weight of Luteolin for one week (days 26-32) and the effects on SGaw and airway reactivity were evaluated. Mice were immunized/sensitized with or without (sham-sensitized) 0.2 ml of 10 μg ovalbumin (Sigma Chemicals Co. St Louis, Mo., USA) and 2 mg aluminum hydroxide intraperitoneally on days 0,7 and 14 using a modified protocol previously described by Sakai et al (FIG. 2). Five days after the final i.p injection, the mice were subjected to aerosolized OVA (5%) or phosphate buffered saline (PBS) (for sham-sensitized group) inhalation for 20 minutes daily beginning from day 19 to day 23 (FIG. 2). Mice were placed in a plexiglas chamber (20×20×20 cm dimensions) and exposed to an aerosol generated from a nebulizer (de Vilbiss, USA) with airflow of 41/min. To study the preventive effect, Luteolin (dissolved in 50% hydro-alcohol) (Sigma Chemicals Co. St Louis, Mo., USA) (0.1, 1.0, and 10.0 mg/kg body weight, 20 □| volume) or vehicle (i.e., 50% hydro-alcohol) was administered orally to each group of mice daily, starting from the first day of sensitization (FIG. 2A). […] Airway calibre was measured in the term of specific airway conductance (SGaw) using a dual-chamber whole body plethysmograph similar to the method for guinea pigs (Agrawal, 1981) with some modifications. […] The value of SGaw was calculated as described by Agrawal (1981). Airway constriction of mice was determined in terms of fall of SGaw due to OVA aerosol challenge. SGaw was measured as described in Example 3. […]

OVA-sensitized mice [2] = assay: Airway reactivity to methacholine (MCh PD35) in mouse model of asthma; format: in vivo
Experimental: Protocol A: The mice were given three i.p. Injections of 10 μg ovalbumin adsorbed on 2 mg alum on 0, 7 and 14 days and then subjected to OVA aerosol inhalation for five consecutive days from 19th to 23rd day of the experiment. On 24th day SGaw measurements were performed after OVA challenge in the plethysmograph and airway reactivity to methacholine was measured after 24 hours. In case of curative study (Protocol B), sensitized mice were fed with 1 mg/kg body weight of Luteolin for one week (days 26-32) and the effects on SGaw and airway reactivity were evaluated.
(§1) Mice were immunized/sensitized with or without (sham-sensitized) 0.2 ml of 10 μg ovalbumin (Sigma Chemicals Co. St Louis, Mo., USA) and 2 mg aluminum hydroxide intraperitoneally on days 0,7 and 14 using a modified protocol previously described by Sakai et al (FIG. 2). Five days after the final i.p injection, the mice were subjected to aerosolized OVA (5%) or phosphate buffered saline (PBS) (for sham-sensitized group) inhalation for 20 minutes daily beginning from day 19 to day 23 (FIG. 2). Mice were placed in a plexiglas chamber (20×20×20 cm dimensions) and exposed to an aerosol generated from a nebulizer (de Vilbiss, USA) with airflow of 41/min.
(§2) To study the preventive effect, Luteolin (dissolved in 50% hydro-alcohol) (Sigma Chemicals Co. St Louis, Mo., USA) (0.1, 1.0, and 10.0 mg/kg body weight, 20 □| volume) or vehicle (i.e., 50% hydro-alcohol) was administered orally to each group of mice daily, starting from the first day of sensitization (FIG. 2A). To study the curative effect, mice were first sensitized as described before (Example 1) followed by oral Luteolin (1.0 mg/kg body weight) treatment daily from day 26 to 32 (FIG. 2B).
Airway reactivity to methacholine was determined by measuring the concentration of inhaled methacholine that produced 35% fall in SGaw (MCh PD35) in intact mouse sitting in the body plethysmograph. Aerosol of different concentrations of methacholine (3.1, 6.25, 12.5, 50, 100 mg/ml) were given for 60 seconds. MCh PD35 values were determined in sham-sensitized, sensitized and Luteolin treated mice during and after sensitization. […] Treatment with Luteolin (0.1, 1.0 and 10.0 mg/kg during sensitization) markedly attenuated the development of airway hyperreactivity to methacholine. MCh PD35 values increased following Luteolin treatment to 72.1±1.9, 42.4±4.2 and 10.9±4.8 mg/ml, respectively (p<0.01).

OVA-specific IgE = OVA-specific IgE levels in serum by ELISA; format: in vivo, mouse
Experimental: (§3) After testing the compound for the preventive as well as for therapeutic effects in intact conscious mice, mice were sacrificed for collecting the blood and bronchoalveolar lavage (BAL) fluid to measure the levels of IgE, cytokines IL-4, IL-5 and IFN-γ. Ovalbumin specific IgE levels in the sera and the levels of IL-4, IL-5 and IFN-γ in the BAL fluid were measured by enzyme linked ImmunoSorbent assay (ELISA) kits.
as §1, §2
OVA-specific IgE levels in the serum were measured by enzyme linked ImmunoSorbent assay (ELISA), To investigate the effect of Luteolin on serum IgE levels, we compared the levels of the OVA-specific IgE in serum of mice treated with vehicle or with Luteolin (0.1, 1.0 and 10.0 mg/kg) during sensitization and in sham-sensitized mice.

IFN-γ = IFN-γ level in BALF by ELISA; format: in vivo, mouse; details: mean±SEM, n=6
Experimental: as §3
(§4) Experiments were performed with six groups of mice (n=6) as described in FIG. 3 legend and the levels of IFN-γ, IL-4 and IL-5 were measured in the BALF. The values are a mean±SEM of six mice in each group. Mann Whitney U test was used to determine the significant differences between the sensitized- and Luteolin treated groups. * p <0.05, ** p<0.01. ‘a’ denotes treatment during sensitization; ‘b’ denotes treatment after sensitization.
as §1, §2
(§5) To investigate the levels of IL-4 and IFN-[…] in the BALF, we measured the cytokine levels by ELISA as per manufacturer's protocol, and compared between the different groups. […] In the Luteolin-treated group, there was an increase in the ratio of IFN-γ/IL-4 (25.8±2.7, 15.5±1.3, 13.2±2.5 following doses of 0.1, 1.0 and 10.0 mg/kg Luteolin, respectively as compared to 0.48±0.1 in sensitized, vehicle treated mice) (p<0.01) (Table 1). […] This increase in the IFN-γ/IL-4 ratio was due to the increase in the IFN-γ levels. We also measured the concentration of IL-5 in the BALF by ELISA in the different groups (Table 1). […]

IL-4 = IL-4 level in BALF by ELISA; format: in vivo, mouse; details: mean±SEM, n=6
Experimental: as §3, §4, §1, §2, §5

IL-5 = IL-5 level in BALF by ELISA; format: in vivo, mouse; details: mean±SEM
Experimental: as §3, §4, §1, §2, §5

OVA-sensitized mice [3] = assay: Mouse model of asthma, effective oral dose; format: in vivo
Experimental: In this context, Luteolin was tested on mouse model of asthma. Mice were sensitized with intraperitoneal and aerosol inhalation of OVA to develop the characteristic features of asthma such as allergen induced early airway response (EAR) and late airway response (LAR). These asthmatic features were characterized by measuring airway calibre in the term of specific airway conductance (SGaw) by a non-invasive technique, dual-chamber whole body plethysmography. After developing the characteristic features (EAR and LAR) in mouse, the compound, Luteolin was given orally during whole sensitization period to test the preventive effect on the development of asthmatic features. To examine the therapeutic effect of Luteolin on the asthmatic features, it was fed for one week to mice after sensitization and confirming their asthmatic features.
as §2

[4] = 1.0 mg/kg oral for one week after sensitization
[5] = 1.0 mg/kg oral during sensitization
[6] = 10.0 mg/kg oral during sensitization
[7] = 10.0 mg/kg during sensitization

Q: Which results are given for `O=c1cc(-c2ccc(O)c(O)c2)oc2cc(O)cc(O)c12` [Luteolin]?
A: decrease in SGaw after OVA challenge (OVA-sensitized mice [1]; 0.1 mg/kg oral daily during sensitization, sensitized vehicle mice 43% fall): 7%; OVA-induced decrease in SGaw, curative effect (OVA-sensitized mice [1]; [4]): reverse OVA-induced decrease in SGaw; reduction of OVA-induced decrease in SGaw at higher doses (OVA-sensitized mice [1]; 1.0 and 10.0 mg/kg oral daily during sensitization, versus 0.1 mg/kg): did not show any greater reduction; MCh PD35 (OVA-sensitized mice [2]; 0.1 mg/kg oral during sensitization, sensitized 1.3±0.5, normal 97±1.0): 72.1 ± 1.9 mg/mL; MCh PD35 (OVA-sensitized mice [2]; [5]): 42.4 ± 4.2 mg/mL; MCh PD35 (OVA-sensitized mice [2]; [4]): increased significantly; MCh PD35 (OVA-sensitized mice [2]; [6]): 10.9 ± 4.8 mg/mL; OVA-specific serum IgE level (OVA-specific IgE; 0.1 mg/kg oral during sensitization, sensitized vehicle 3.3±0.4): 0.74±0.4; OVA-specific serum IgE level (OVA-specific IgE; [5]): 0.93±0.03; OVA-specific serum IgE level (OVA-specific IgE; 1.0 mg/kg oral for a week after sensitization): 2.07±1; OVA-specific serum IgE level (OVA-specific IgE; [6]): 0.97±0.07; IFN-γ (IFN-γ; 0.1 mg/kg during sensitization): 3533 ± 427** pg/ml; IFN-γ (IFN-γ; 1.0 mg/kg after sensitization): 2067 ± 233.3** pg/ml; IFN-γ (IFN-γ; 1.0 mg/kg during sensitization): 2652 ± 114.3** pg/ml; IFN-γ (IFN-γ; [7]): 1247 ± 412.5** pg/ml; IL-4 (IL-4; 0.1 mg/kg during sensitization): 136 ± 4.0 pg/mL; IL-4 (IL-4; 1.0 mg/kg after sensitization): 130 ± 5.0 pg/mL; IL-4 (IL-4; 1.0 mg/kg during sensitization): 169 ± 13.9 pg/mL; IL-4 (IL-4; [7]): 128 ± 8.8 pg/mL; IL-5 (IL-5; 0.1 mg/kg during sensitization, n=6, 0.1 mg/kg): 73.3±13.4 pg/ml and 73 ± 13.4* pg/ml; IL-5 (IL-5; 1.0 mg/kg after sensitization (one week), n=6, 1 mg/kg): 43.7±2.3 pg/ml and 44 ± 2.3* pg/ml; IL-5 (IL-5; 1.0 mg/kg during sensitization, n=6, 1 mg/kg): 43.3±3.5 pg/ml and 43 ± 3.5* pg/ml; IL-5 (IL-5; 10.0 mg/kg during sensitization, n=6): 235 ± 66.4 pg/mL; effective dose (OVA-sensitized mice [3]): 1 mg/kg body weight
